Measured values from ChEMBL document CHEMBL1129438, “Neighboring group catalysis in the design of nucleotide prodrugs” (J Med Chem, 1996).

Assays:
[1] = Half life (t 1/2) during hydrolysis catalyzed by brain extract; format: ADME, tissue-based
[2] = Half life (t 1/2) during pig liver esterase-catalyzed hydrolysis; format: ADME, organism-based, Sus scrofa
[3] = Half life (t 1/2) during hydrolysis caused by human serum; format: ADME, organism-based
[4] = Half life (t 1/2) during base-catalyzed hydrolysis; format: ADME

Row | Compound | half-life [1] [h] | half-life [2] [h] | half-life [3] [h] | half-life [4] [h]
1 | COC(=O)c1ccccc1OP(=O)(OC[C@H]1O[C@@H](n2ccc(=O)[nH]c2=O)C[C@@H]1N=[N+]=[N-])OC[C@H]1O[C@@H](n2ccc(=O)[nH]c2=O)C[C@@H]1N=[N+]=[N-] | 4 | 20 | 4 | 1.1
2 | [N-]=[N+]=N[C@H]1C[C@H](n2ccc(=O)[nH]c2=O)O[C@@H]1COP(=O)(OC[C@H]1O[C@@H](n2ccc(=O)[nH]c2=O)C[C@@H]1N=[N+]=[N-])Oc1ccccc1C(=O)Oc1ccccc1 | 5 | 1 | 4 | 1.1
3 | [N-]=[N+]=N[C@H]1C[C@H](n2ccc(=O)[nH]c2=O)O[C@@H]1COP(=O)(OC[C@H]1O[C@@H](n2ccc(=O)[nH]c2=O)C[C@@H]1N=[N+]=[N-])Oc1ccccc1 | 17 | 17 | 17 | 17
4 | O=C(OC1O[C@H](CO)[C@@H](O)[C@H](O)[C@H]1O)c1ccccc1OP(=O)(OC[C@@H]1CC[C@H](n2ccc(=O)[nH]c2=O)O1)OC[C@@H]1CC[C@H](n2ccc(=O)[nH]c2=O)O1 (stereo partly specified) | > 72 | > 48 | 48 | 17
